Columns and labels:
human MCH-1 receptor = target: T1, human MCH-1 receptor (Homo sapiens, UniProt Q99705); test: Ca2+ mobilization experiment for the MCH-1 receptor (FLIPR), inhibition of MCH-induced Ca2+ response; format: cell-based; conditions: CHO cells stably expressing human MCH-1 receptor, submaximal MCH concentration, read-out: MCH-1 pIC50 (converted)
T1 construct: expressed in transfected cells
Experimental: The interaction of the compounds of Formula (I) with MCH-1 receptors was assessed in in vitro transient calcium (Ca^2+) mobilization assays in the fluorimetric imaging plate reader (FLIPR) format (Sullivan et al. 1999, Methods Mol Biol 114:125-133). In general, the natural agonist (MCH) is incubated with cells expressing the MCH-1 receptor, which elicits a concentration-dependent transient mobilization of Ca^2+ from internal stores. The interaction of the test compounds with the receptor is assessed in competition experiments. Various concentrations of the test compound are added to the incubation mixture containing the receptor-expressing cells and a submaximal concentration of MCH. The test compound in proportion to its antagonist potency and its concentration inhibits MCH-induced Ca^2+ mobilization.
Cell culture and membrane preparation. Chinese Hamster ovary cells (CHO) stably expressing the human MCH-1 receptor are grown in a 1:1 mixture of Dulbecco's Modified Eagles Medium (DMEM) and HAM's F12 medium including Glutamax™ (Invitrogen), supplemented with 10% heat-inactivated fetal bovine serum and 400 μg/ml geneticin.
Ca^2+ mobilization experiment for the MCH-1 receptor. Twenty-four hours before the experiment, MCH-1 receptor-expressing CHO cells are seeded in 20 μl (5,000 cells per well) into 384-well black wall, clear bottom microtiter plates (Costar). On the day of the experiment, 20 μl per well calcium assay kit containing 10 mM probenicide (Molecular Devices) is added. Cells are loaded for 90 min at 37° C. and 5% CO2 in a cell culture incubator. After loading, 20 μl of serial dilutions of the test compound are added and cells are further incubated for 20 min at room temperature in the dark. After 20 min, 20 μl of a submaximal MCH concentration is added and changes in intracellular calcium are recorded directly in a FLIPR III apparatus (Molecular devices).
Data analysis and results. Data from assays in the presence of compound were calculated as a percentage of total Ca^2+-responses measured in the absence of test compound. Inhibition curves, plotting percent of total Ca^2+-responses versus the log value of the concentration of the test compound, were automatically generated, and sigmoidal inhibition curves were fitted using non-linear regression. The pIC50 values of test compounds were derived from individual curves.

HERG potassium channel = target: T2, HERG potassium channel (Homo sapiens, UniProt Q12809); test: hERG-mediated K+ tail current, automated whole-cell patch clamp (PatchXpress 7000A) in HEK293 cells stably transfected with HERG; format: cell-based; conditions: measured after 5 minutes of drug application
T2 construct: expressed in transfected cells
T2 sequence (Q12809 whole entry): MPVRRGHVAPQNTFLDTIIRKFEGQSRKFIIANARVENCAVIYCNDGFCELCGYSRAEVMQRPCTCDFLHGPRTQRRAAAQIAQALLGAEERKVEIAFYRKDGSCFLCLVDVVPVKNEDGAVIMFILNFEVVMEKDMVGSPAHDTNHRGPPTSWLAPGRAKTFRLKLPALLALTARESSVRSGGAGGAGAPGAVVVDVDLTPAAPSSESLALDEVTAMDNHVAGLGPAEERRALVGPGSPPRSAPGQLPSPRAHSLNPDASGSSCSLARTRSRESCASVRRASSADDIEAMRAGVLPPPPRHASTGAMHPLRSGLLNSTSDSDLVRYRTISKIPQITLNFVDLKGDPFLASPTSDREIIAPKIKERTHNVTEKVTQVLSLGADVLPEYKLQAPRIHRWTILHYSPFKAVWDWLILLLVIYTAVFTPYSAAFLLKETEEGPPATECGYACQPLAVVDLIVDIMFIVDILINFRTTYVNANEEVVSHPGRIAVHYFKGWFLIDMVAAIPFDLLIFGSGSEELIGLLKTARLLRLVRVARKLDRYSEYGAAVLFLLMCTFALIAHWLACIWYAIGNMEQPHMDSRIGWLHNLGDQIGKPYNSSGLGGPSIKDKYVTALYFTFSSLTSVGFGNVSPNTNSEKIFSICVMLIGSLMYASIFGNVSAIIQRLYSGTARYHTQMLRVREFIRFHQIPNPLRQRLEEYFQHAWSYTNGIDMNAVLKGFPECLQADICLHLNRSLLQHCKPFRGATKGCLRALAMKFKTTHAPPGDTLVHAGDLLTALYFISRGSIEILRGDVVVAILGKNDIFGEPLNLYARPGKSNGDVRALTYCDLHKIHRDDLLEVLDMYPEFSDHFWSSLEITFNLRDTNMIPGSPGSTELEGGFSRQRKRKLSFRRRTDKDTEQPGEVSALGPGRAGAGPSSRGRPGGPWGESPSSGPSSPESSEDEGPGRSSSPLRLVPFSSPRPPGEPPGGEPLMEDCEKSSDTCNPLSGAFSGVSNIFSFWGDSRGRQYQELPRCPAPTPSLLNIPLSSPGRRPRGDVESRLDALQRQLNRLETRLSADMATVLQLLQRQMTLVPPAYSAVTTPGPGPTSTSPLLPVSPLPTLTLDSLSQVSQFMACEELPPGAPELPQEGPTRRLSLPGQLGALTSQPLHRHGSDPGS
From the text: To determine the extent of block the residual current was compared with vehicle pre-treatment.

T1 sequence (Q99705 whole entry): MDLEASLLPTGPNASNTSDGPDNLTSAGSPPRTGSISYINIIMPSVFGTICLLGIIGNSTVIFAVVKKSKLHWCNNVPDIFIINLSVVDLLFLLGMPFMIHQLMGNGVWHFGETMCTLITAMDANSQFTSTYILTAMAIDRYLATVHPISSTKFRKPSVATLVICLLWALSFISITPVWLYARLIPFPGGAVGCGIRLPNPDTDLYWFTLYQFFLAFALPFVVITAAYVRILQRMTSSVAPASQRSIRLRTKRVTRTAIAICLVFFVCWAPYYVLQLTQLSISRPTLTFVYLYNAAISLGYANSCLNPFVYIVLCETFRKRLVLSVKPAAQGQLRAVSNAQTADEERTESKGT

SMILES | IC50 (human MCH-1 receptor) [nM] | melting point [°C] | hERG-reduction (%) at 3 μM (HERG potassium channel) [%]
O=c1cc(OCc2ccccc2)ccn1-c1ccc(N2CCC3(CC2)CNC3)cc1 [Compound 1-1] | 79.4 |  | 
O=c1cc(OCc2ccccc2)ccn1-c1ccc(N2CCC3(CCCNC3)CC2)cc1 [Compound 1-2] | 50.1 | 141.5 | 
O=c1cc(OCc2ccccc2)ccn1-c1ccc(N2CCC3(CC2)CNCCO3)cc1 [Compound 1-3] | 126 |  | 
O=c1cc(OCc2ccccc2)ccn1-c1ccc(N2CCCC3(CCNC3)C2)cc1 (stereo not drawn) [Compound 1-4] | 31.6 |  | 
O=c1cc(OCc2ccccc2)ccn1-c1ccc(N2CC3(CCNCC3)C2)cc1 [Compound 1-5] | 31.6 | 203.2 | 
O=c1cc(OCc2ccccc2)ccn1-c1ccc(N2CCC3(CCCNC3)C2)cc1 (stereo not drawn) [Compound 1-6] | 25.1 |  | 
O=c1cc(OCc2ccccc2)ccn1-c1ccc(N2CCC3(CCNCC3)C2)cc1 [Compound 1-7] | 63.1 | 236.3 | −1.8
CCN1CCC2(CC1)CN(c1ccc(-n3ccc(OCc4ccccc4)cc3=O)cc1)C2 [Compound 1-8] | 63.1 |  | 
O=c1cc(OCc2ccccc2)ccn1-c1ccc(N2CC3(CCN(C4CC4)CC3)C2)cc1 [Compound 1-9] | 100 | 276.5 | 
O=C1CC2(CCNCC2)CN1c1ccc(-n2ccc(OCc3ccccc3)cc2=O)cc1 [Compound 1-10] | 79.4 |  | 
O=C1N(c2ccc(-n3ccc(OCc4ccccc4)cc3=O)cc2)CC12CCNCC2 [Compound 1-11] | 50.1 |  | 
O=c1cc(OCc2ccccc2)ccn1-c1ccc(N2CC3(CCNCC3)C2)cc1 [Compound 1-12] | 25.1 | 231 | 0.7
CN1CCC2(CC1)CCN(c1ccc(-n3ccc(OCc4ccccc4)cc3=O)cc1)C2 [Compound 1-14] | 31.6 |  | 

More lines, main results first:

IC50 (human MCH-1 receptor) [nM] | melting point [°C] | SMILES | hERG-reduction (%) at 3 μM (HERG potassium channel) [%]
25.1 | 164.6 | Cc1cc(-n2ccc(OCc3ccccc3)cc2=O)ccc1N1CC2(CCNCC2)C1 [Compound 2-1] | 15.6
39.8 |  | COc1cc(-n2ccc(OCc3ccccc3)cc2=O)ccc1N1CC2(CCNCC2)C1 [Compound 2-2] | 
25.1 |  | O=c1cc(OCc2ccccc2)ccn1-c1ccc(N2CC3(CCNCC3)C2)c(Cl)c1 [Compound 2-3] | 
31.6 |  | CN1CCC2(CC1)CN(c1ccc(-n3ccc(OCc4ccccc4)cc3=O)cc1Cl)C2 [Compound 2-4] | 
63.1 |  | O=c1cc(/C=C/c2ccccc2)ccn1-c1ccc(N2CC3(CCNCC3)C2)cc1 [Compound 3-1] | 
39.8 |  | O=c1cc(OCc2ccc(F)cc2)ccn1-c1ccc(N2CC3(CCNCC3)C2)cc1 [Compound 3-2] | 
501 | 292.7 | O=c1cc(COc2ccccc2)ccn1-c1ccc(N2CC3(CCNCC3)C2)cc1 [Compound 3-3] | 

— US8158643B2, “Substituted diaza-spiro-pyridinone derivatives for use in MCH-1 mediated diseases” (Janssen Pharmaceutica N.V., priority 2006, dated 2012)
